Assay results: PubChem BioAssay AID449762 (Southern Research Specialized Biocontainment Screening …, 2010)
Results filed as inconclusive are left out.

Tested on: M. tuberculosis H37Rv growth inhibition, 7H9 media
Experiment: M. tuberculosis growth inhibition, HTS (AID 449762);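 note: bacterial growth assessed after seven days of incubation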
Conditions: for IC90: measured here: IC90 growth inhibition

SMILES	IC90	IC50
CC(C)C[C@H]1C(=O)N2CCC[C@H]2[C@]2(O)O[C@](NC(=O)C3C=C4c5cccc6[nH]c(Br)c(c56)C[C@H]4N(C)C3)(C(C)C)C(=O)N12 (stereo partly specified)	> 100 µM	
O=C(N/N=C/c1ccc(Br)s1)c1cccs1	> 100 µM	24.3 µM
CCOc1ccc(-n2c(-c3ccc(Br)cc3)c[n+]3c2CCCCC3)cc1	> 100 µM	69.7 µM
O=C(Nc1ncc(Cc2ccccc2Cl)s1)C1=NCCN1	92.9 µM	0.43 µM
CCOC(=O)N1CCN(Cc2cc(Cl)c3cccnc3c2O)CC1	21 µM	11 µM
COc1cc2[nH]c(Cl)c([N+](=O)[O-])c2cc1OC	> 100 µM	99.6 µM
C=CCN(CC(=O)c1sc(C(=O)OCC)nc1C)c1cccc(Br)c1	28.8 µM	19.4 µM
COc1ccc(NC(C)C(=O)Nc2ccc(C(C)(C)C)cc2)cc1Cl (stereo unspecified)	> 100 µM	86.1 µM
O=C(C[n+]1cc(-c2ccc(Cl)cc2)n2c1CCC2)Nc1nc(-c2ccccc2)cs1	25.1 µM	17 µM
O=c1c2ccc(Cl)cc2nc(-c2ccc([N+](=O)[O-])cc2)n1O	> 100 µM	82.6 µM
Cc1cc(NC(=O)CCl)no1	3.6 µM	1.31 µM
Cc1cc(C2=NNC(=NC3CCCCC3)SC2)c(C)n1-c1c(C)n(C)n(-c2ccccc2)c1=O	> 100 µM	88.2 µM
O=C(/C=C/c1ccc(O)cc1)c1ccc(NC2=C(N3CCCCC3)C(=O)c3ccccc3C2=O)cc1	13.6 µM	12 µM
CCCCCC1CC(CC(=O)NC(=S)Nc2ccc([N+](=O)[O-])cc2)C(=O)O1 (stereo unspecified)	> 100 µM	92.9 µM
Cc1cc(C)cc(NC(=O)CCc2ccc(C)o2)c1	> 100 µM	43 µM
COc1ccccc1NC(=O)Nc1nc(CC(=O)N2CCN(c3ccccc3F)CC2)cs1	> 100 µM	41.7 µM
c1ccc(Cn2nnc3c(N4CCc5ccccc5C4)ncnc32)cc1	72.8 µM	19.7 µM
COc1ccc(OC)c(C(=O)NC(CC(N)=O)c2ccc(NCc3ccc(F)c(F)c3)c([N+](=O)[O-])c2)c1 (stereo unspecified)	23.6 µM	5.38 µM
S=C(NCCN1CCOCC1)N/N=C/c1cccs1	6.22 µM	5.55 µM
c1ccc(CCNc2ncnc3c2cnn3-c2ccccc2)cc1	> 50 µM	22.1 µM
Cc1nc(SCC(=O)NCC2CCCO2)c2c3c(sc2n1)CCCC3 (stereo unspecified)	24.6 µM	22.2 µM
CCOc1ccc(Nc2cc(C)nc(-n3nc(C)cc3C)n2)cc1	4.77 µM	0.7 µM

SMILES	IC90	IC50
COc1ccc(Cl)cc1C(=O)O/N=C(\N)c1ccccn1	> 100 µM	25.4 µM
Cc1cc(OC(=O)c2cccs2)c2c3c(c(=O)oc2c1)CCCC3	3.52 µM	3.04 µM
C=CCOc1ccc2c(c1)C(=NO)c1cc(OCC=C)ccc1-2	9.27 µM	5.82 µM
Cc1cc(-c2ccc(Cl)cc2)c2cnn(C(C)C)c2n1	44.1 µM	25.5 µM
Cc1cccc(OCc2n(CC(=O)OC3CC(C)CCC3C(C)C)c3ccccc3[n+]2C)c1 (stereo unspecified)	9.6 µM	7.43 µM
C(=N\Nc1nc(-c2ccccc2)cs1)/c1ccncc1	66.4 µM	47.3 µM
O=C(CNC(=O)c1ccco1)OCc1ccc(C(=O)Oc2ccccc2)cc1	16.2 µM	4.52 µM
CC(C)CCC[C@@H](C)[C@H]1CC[C@H]2[C@@H]3C(=O)C=C4C[C@@H](O)CC[C@]4(C)[C@H]3CC[C@]12C	47.8 µM	43.3 µM
CC(=O)Nc1sc2c(c1-c1nc3ccccc3s1)CCN(C(C)C)C2	6.66 µM	5.88 µM
CCOC(=O)C1CCCc2c1[nH]c1c(C(N)=O)cccc21 (stereo unspecified)	13.2 µM	4.13 µM
c1ccc(/N=C2\N=C(Nc3ccccn3)c3ccccc32)nc1	1.91 µM	1.08 µM
O=C(CN1CCN(Cc2ccc(Cl)cc2)CC1)N/N=C/C=C/c1ccccc1[N+](=O)[O-]	37.6 µM	26.8 µM
Cc1cc(Cl)ccc1NNC(=O)CCc1ccccc1	> 100 µM	94.5 µM
COc1ccc(C(CCN2CCCCC2)c2c(OC)cc(OC)c3c(-c4ccccc4)cc(=O)oc23)cc1 (stereo unspecified)	22.4 µM	15.1 µM
O=C(N/N=C/c1cccc2cccnc12)[C@H]1C[C@@H]1c1ccccc1	34.7 µM	18.6 µM
O=c1oc2ccccc2c(O)c1/C=C1\C=Nc2ccccc21	39.8 µM	16.6 µM
Cc1cc(C)n(-c2nc(NCCN(C)C)c3c4c(sc3n2)CCCC4)n1	18.6 µM	14.6 µM
CCCCCc1nc2c(c(=O)c3ccccc3n2C)c(=O)n1C1CCCCCC1	> 100 µM	30 µM
CN(C)CCCNC(=O)c1ccc(-c2nc(-c3ccc(Cl)cc3)cs2)cc1	42.3 µM	27.8 µM
O=C1c2ccccc2CC1Sc1nnc(-c2ccncc2)o1 (stereo unspecified)	30 µM	20.6 µM
O=C(NNc1nc(-c2ccccc2)cs1)c1ccccc1	> 100 µM	7.6 µM
C/C(=N\Nc1ccc([N+](=O)[O-])cc1)c1cccc(N)c1	88.3 µM	62.9 µM

SMILES	IC90	IC50
Oc1cc(Nc2ccccc2)cc2cccnc12	26.6 µM	13.8 µM
O=C(CSc1nc2ccccc2nc1N1CCOCC1)N1CCN(c2ccccc2)CC1	13.2 µM	11.4 µM
CCOC(=O)c1cc2cc3ccccc3cc2oc1=O	> 100 µM	34 µM
COc1cc(C)ccc1S(=O)(=O)N1CCN(C23CC4CC(CC(C4)C2)C3)CC1	44 µM	28.8 µM
CC(C)(C)C(=O)NC(=S)NNC(=O)c1sc2ccccc2c1Cl	> 100 µM	23.8 µM
O=C(Nc1cccc(-c2csc(Nc3ccc(Cl)cc3)n2)c1)c1cccc(C(F)(F)F)c1	> 100 µM	27 µM
CCOC(=O)CSc1ccc(C(=O)Nc2ccc(OC)cc2)cn1	> 100 µM	< 0.2 µM
O=C1Nc2ccccc2/C1=N\N=C\C1=C(N2CCOCC2)C(=C\c2ccccc2)/CC1	59.8 µM	33.4 µM
O=C(O)C1CC=CCC1C(=O)N1CCN(c2nc(-c3ccccc3Cl)c3cc(Br)ccc3n2)CC1 (stereo unspecified)	78.5 µM	46.4 µM
C/C(CC(=O)Nc1ccc(Cl)cc1C(F)(F)F)=N\NC(N)=S	19.5 µM	16 µM
Oc1ccc(/C=N/NC(=S)N2CCOCC2)cc1	6.19 µM	4.2 µM
FC(F)(F)c1ccc(Nc2nnnc3ccccc23)cc1	99.6 µM	90.2 µM
CCCCCC(=O)N/N=C(\C)c1ccccn1	33.1 µM	13.9 µM
COc1cc2[nH]c3c(N4CCN(c5ccccn5)CC4)ncnc3c2cc1OC	> 50 µM	13.6 µM
COc1ccc(-c2nnn(CC(=O)OC3CCCCC3)n2)cc1OC	62.7 µM	5.71 µM
CC(C)NC(=O)c1onc(CSc2ccc(F)c(F)c2)c1C(=O)O	18.9 µM	11 µM
CC(=O)c1cccc2c(O)c(C3=Nc4ccccc4C3=O)[nH]c12	13.2 µM	11.7 µM
CCOc1cc(/C=N\NC(=O)Cn2nc([N+](=O)[O-])cc2C)ccc1OCc1cccc2ccccc12	> 100 µM	
CN(Cc1ccc(Br)cc1)C(=O)CCN1C(=O)c2cccc([N+](=O)[O-])c2C1=O	> 100 µM	29.1 µM
CC1CCC(C(C)C)C(OC(=O)Cn2c(-c3ccc(F)cc3)[n+](C)c3ccccc32)C1 (stereo unspecified)	13 µM	9.08 µM
